In data set [1] the test system is rat hippocampal slices. As to conditions: introductory statement; cited from earlier work.
Data set [2] relates to rat hippocampal slices. The data set can be described thus: epileptiform responses in hippocampal slices induced by high-K+/low-Ca2+ fluid (HKLCF). Particulars: for evoked epileptiform responses (PS1 amplitude, repetitive PSs) in CA3 area: HKLCF perfusion, fimbrial stimulation. Format: cell-based, Sprague-Dawley rats. Also on record: rate of spontaneous field bursting: dose or concentration left out as unconfirmed. The protocol: The effect of brivaracetam on epileptiform responses induced by high-K+/low-Ca2+ concentrations or by bicuculline was examined in transverse hippocampal slices prepared from Sprague-Dawley rats according to previously reported standard procedures. The epileptiform responses were induced by passing from a normal perfusion of artificial cerebrospinal fluid (ACSF) (K+3 mM; Ca2+2.4 mM) to either high-K+/low-Ca2+ fluid (HKLCF) (K+7.5 mM; Ca2+0.5 mM) or to […] bicuculline methiodide (BMI)-containing ACSF.
Extracellular field potentials (FPs) were recorded in the CA3 area of the slices with 2 M NaCl-filled glass microelectrodes. The evoked FPs were recorded at 10-min intervals in response to fimbrial stimulation with constant current rectangular pulses that elicit a single population spike (PS) of 50-75% of the maximal amplitude when the slice is in ACSF. In the HKLCF model, 2 min of spontaneous activity were also recorded, in the middle of each 10-min interval between the recordings of evoked responses.
Either brivaracetam or levetiracetam was added to the bathing fluid of the slices 20 min before shifting from ACSF to either HKLCF or […] BMI-containing ACSF, and was kept in the perfusion fluid throughout the experiment.

Data set [3] deals with rat hippocampal slices. Particulars: introductory statement; cited from earlier work. This is another data set of the same source.
A further data set in a line: BCS classification. The class given is physicochemical. The protocol:
Considering Levetiracetam, Brivaracetam and Seletracetam are classified as BCS I, in order to achieve a prolonged therapeutic plasmatic drug level the resulting in vitro dissolution (USP<711> apparatus n°2) in a buffered aqueous media has to show a drug release of no more than 40% after 1 hour of dissolution, of 25% -80% after 4 hours of dissolution and of no less than 80% after 16 hours of dissolution. Preferably, a profile of no more than 35% after 1 hour of dissolution, of 35% -75% after 4 hours of dissolution and of no less than 80% after 16 hours of dissolution. More preferably a profile of no more than 30% after 1 hour of dissolution, of 45% -70% after 4 hours of dissolution and of no less than 80% after 16 hours of dissolution.

A further data set relates to amygdala-kindled rats. Briefly: fully amygdala-kindled rats. Format: in vivo, rat. Particulars: for dose significantly reducing the after-discharge duration: brivaracetam at highest dose tested, levetiracetam inactive up to stated dose.
In a further data set the test system is GAERS rats. Briefly: spontaneous SWDs in GAERS rats. Format: in vivo, rat.
A short description of another data set: water solubility. The class given is physicochemical.
Data set [4] concerns genetically sound-sensitive male mice. Briefly: audiogenic seizures in mice. Format: in vivo. As to conditions: audiogenic seizure-susceptible mice; i.p. The protocol: Audiogenic seizures in mice: Genetically sound-sensitive male mice (16-28 g; n=10 per group), responding with wild running, clonic and tonic convulsions to an acoustic stimulation, were used. Audiogenic seizures were induced by an acoustic stimulus (90 dB, 10-20 kHz) applied for 30 s. The mice were pretreated with either saline, brivaracetam (i.p., 30 min) or levetiracetam (i.p., 60 min), and the proportion of mice protected against clonic convulsions was used as the end point to assess anticonvulsant activity.

The conditions of data set [5]: A. J. GOWER et al., Eur. J. Pharmacol., 222, (1992), 193-203; cited from earlier work.
Data set [6] deals with adult patients with refractory partial onset seizures. The data set can be described thus: clinical studies, adjunctive treatment of partial onset seizures (epilepsy). Format: in vivo, human. The protocol: (§1) Brivaracetam is effective in the treatment of epilepsy. A clinical trial evaluated the efficacy and safety of Brivaracetam (5, 20 and 50 mg per day) in the adjunctive treatment of adult patients with refractory partial onset seizures, with or without secondary generalization. Brivaracetam is also effective in the treatment of patients with post-herpetic neuralgia.
Seletracetam is effective in the treatment of epilepsy. Two studies were conducted with Seletracetam in epilepsy evaluating the efficacy and safety of Seletracetam in the adjunctive treatment of partial onset seizures in highly refractory adult patients currently receiving up to three concomitant anti-epileptic drugs.

For data set [7], the system named is mice. Briefly: maximal electroshock in mice. The class given is in vivo. As to conditions: i.p. 30 min before seizure induction; higher ED50 values than audiogenic. In general terms: In the maximal electroshock model the usual endpoint is tonic extension of the hind limbs.
Data set [8] has as its system patients with post-herpetic neuralgia. The data set can be described thus: treatment of patients with post-herpetic neuralgia. Format: in vivo, human. The protocol: as §1
Data set [9] relates to mice. The data set can be described thus: corneal kindling of mice. Format: in vivo.
For data set [10], the system named is mice. Briefly: chemically induced seizures in mice (pentylenetetrazol). Format: in vivo. Particulars: i.p. 30 min before seizure induction; higher ED50 values than audiogenic. The method, then:
The dose was selected based on dose-effect curves in saline-treated animals as the convulsive dose inducing clonic convulsions of all four extremities in 97% of the animals. Immediately after administration of the chemoconvulsant, the mice were placed individually in small plastic cages (25 13 8 cm) and observed for the presence of clonic convulsions in all four extremities, for 60 min. The occurrence of tonic convulsions (hindlimb extension) and mortality was also recorded during this interval. The proportion of mice protected against clonic convulsions was calculated and used as the end point for anticonvulsant activity.

As usually defined, the solubility is how much of the substance goes into solution per volume. Take `CC[C@@H](C(N)=O)N1CCCC1=O` [Levetiracetam, (S)-(−)α-ethyl-2-oxo-1-pyrrolidineacetamide]: the “epileptiform responses induced by bicuculline” value in the data set with rat hippocampal slices [1] was “reduces epileptiform responses”. Further, in the data set with rat hippocampal slices [2], the “evoked epileptiform responses (PS1 amplitude, repetitive PSs) in CA3 area” value was “reduced these epileptiform responses”. The “epileptiform responses induced by high-K+/low-Ca2+ concentrations” value in the data set with rat hippocampal slices [3] was “reduces epileptiform responses”. In addition, the BCS class result in the data set “BCS classification” is reported as “BCS I”. In addition, in the data set on amygdala-kindled rats, the “dose from which significant suppression in motor-seizure severity is induced” value was found to be 170 mg/kg and the “dose significantly reducing the after-discharge duration” value was over 1700 mg/kg. In addition, in the data set with GAERS rats, the “dose from which spontaneous SWDs are significantly suppressed” value is 5.4 mg/kg. The solubility in the data set “water solubility” was over 500 mg/mL. Besides, the “protection against clonic convulsions” value in [4] is “protected”.

For the compound `CC[C@H](C(N)=O)N1CCCC1=O` [(R)-(+)-α-ethyl-2-oxo-1-pyrrolidine-acetamide], the “activity in the treatment of epilepsy” value in data set [5] is “completely devoid of activity”.

For the compound `CCC[C@@H]1CC(=O)N([C@@H](CC)C(N)=O)C1` [Brivaracetam, (2S)-2-[(4R)-2-oxo-4-propyl-pyrrolidin-1-yl] butanamide], the “rate of spontaneous field bursting” value in the data set on rat hippocampal slices [2] (HKLCF) is given as “reduced the rate”. The “evoked epileptiform responses (PS1 amplitude, repetitive PSs) in CA3 area” value in the data set on rat hippocampal slices [2] is recorded as “reduced these epileptiform responses”. Besides, in [6], the “efficacy in the treatment of epilepsy” value is on record as “effective”. Besides, the BCS class result in “BCS classification” is given as “BCS I”. In the data set with mice [7], the “protection against tonic hindlimb extension induced by a maximal electroshock” value is “protected”. For the same compound, in the data set on amygdala-kindled rats, the “dose from which significant suppression in motor-seizure severity is induced” value amounted to 21.2 mg/kg and the “dose significantly reducing the after-discharge duration” value came to 212.3 mg/kg. Moreover, the “dose from which spontaneous SWDs are significantly suppressed” value with GAERS rats stood at 2.1 mg/kg. Also, in the data set on GAERS rats (highest dose tested (67.9 mg kg−1)), the “inhibition of spontaneous SWDs” value is listed as “complete inhibition”. The “efficacy in post-herpetic neuralgia” value in data set [8] is “effective”. The “incidence of generalized motor seizures after termination of treatment” value in the data set on mice [9] (continued corneal stimulations, group previously treated with the highest dose) is listed as “persistent reduction”. The “incidence of generalized motor seizures” value in the data set with mice [9] (pretreatment during corneal kindling, levetiracetam at higher doses) is “significant reduction”. Moreover, in data set [4], the “protection against clonic convulsions” value is “protected”. In the data set with mice [10], the “protection against clonic convulsions induced by pentylenetetrazol” value is “protected”.

As to `CC[C@@H](C(N)=O)N1C[C@H](C=C(F)F)CC1=O` [Seletracetam, (2S)-2-[(4S)-4-(2,2-difluorovinyl)-2-oxo-pyrrolidin-1-yl]butanamide], the “efficacy in the treatment of epilepsy” value in data set [6] is given as “effective”. The BCS class entry in the data set “BCS classification” was “BCS I”.

(Values after patent US10172805B2, “Prolonged release formulations comprising an 2-oxo-1-pyrrolidine derivative” (UCB BIOPHARMA SPRL, priority 2008, dated 2019).)
